For 101 molecules, melting point results are on record in a melting point compilation (Tetko et al.).

In general, melting point refers to the temperature of the solid-liquid transition.

The conditions of the data set: a range is the spread between reports.

SMILES strings stand for the structures.

Molecule `c1cc2cccc3c4cccc5cccc(c(c1)c23)c54` displayed a melting point of 274 to 278 °C. In the case of `O=C(C[N+](=O)[O-])Nc1ccccc1`, the melting point lay within 93 to 94 °C. `c1cnc2[nH]ccc2c1` yielded a melting point of 105 to 106 °C. As for `Clc1ccc(Br)cc1`, the melting point lay within 65 to 68 °C. Turning to `COCCOCCOC`, the melting point is -68 to -64 °C. For `CC12C=CC(=O)C=C1CCC1C2C(O)CC2(C)C1CCC2(O)C(=O)CO` (stereo unspecified) the value was 235 to 240 °C; for `Clc1cccc(Br)c1Cl`, 58 to 60 °C.

`O=[N+]([O-])c1cccc2cccnc12` showed a melting point of 88 to 90 °C. For `CCCCCCC(O)C(=O)O` (stereo unspecified) the value was 69 to 70 °C; for `NC(=O)c1ccc(Cl)cc1`, 173 to 178 °C; for `Ic1ccc(I)s1`, 41 to 41.5 °C. For `O=Cc1cc(Cl)ccc1O` the value was 100 to 101 °C; for `CCc1cccnc1`, -77 to -76.9 °C; for `O=C(O)C1CC1`, 15.5 to 18.5 °C. Then `OCCOc1ccc2ccccc2c1`, with 74 to 76.7 °C.

As to `CCCOC(=O)c1ccc(N)cc1`, the melting point lay within 74 to 75 °C.

As for `O=C(O)c1ccccc1Br`, the melting point lay within 146 to 150 °C. For the molecule `NCCCCCO`, the melting point was in the range of 35 to 38.5 °C. The molecule `Cc1ccc(F)cc1[N+](=O)[O-]` came in with a melting point of 26 to 27 °C. Molecule `CCC1(c2ccccc2)CCC(=O)NC1=O` (stereo unspecified) yielded a melting point of 84 to 87.5 °C.

Molecule `O=C(Cl)c1ccc(F)cc1` registered a melting point of 9 to 10 °C. On to `O=C1CCO1`, for which the melting point is -34 to -33.4 °C.

Take `CCCCNC(=S)NCCCC`: the melting point was in the range of 64 to 66 °C.

The molecule `O=C(O)c1cc(Cl)ccc1Cl` registered a melting point of 152 to 156 °C.

For the molecule `Nc1cccc(N)c1`, the melting point fell in the range of 63 to 65 °C.

In turn, `N#Cc1cccc(N)c1` came in with a melting point of 52 to 54.3 °C. For `O=S(=O)(F)F`, the melting point was -136 °C. Regarding `O=C1CCCN1`, the melting point fell in the range of 23 to 24 °C. As for `CCCC#CC(=O)O`, the melting point lay within 25 to 27 °C.

`Nc1c(Cl)cc(Cl)cc1Cl` came in with a melting point of 74 to 78.5 °C. For `CS` the value was -123 to -121 °C; for `Clc1cc(Cl)c(-c2ccccc2)cc1Cl`, 76 to 78 °C; for `Cc1c(N)cccc1Cl`, 1 to 2 °C. `CC(=O)OC(OC(C)=O)c1ccc([N+](=O)[O-])o1`: the melting point is 90 to 91 °C.

With `CCCCCCCCCCC`, the melting point was -26 to -25.6 °C.

For `CCCCCCCC`, the melting point is -57 to -56.8 °C. Molecule `c1ccc(/N=N/c2ccccc2)cc1` yielded a melting point of 67 to 69 °C.

`CCc1ccc2ccccc2c1`: the melting point was -7.45 to -7.35 °C. Take `C=CC(C)C`: the melting point was -168 °C. The molecule `NC(=O)c1ccncc1` had a melting point of 156 to 157 °C. `O=Cc1c[nH]c2ccccc12` returned a melting point of 196 to 197 °C. For `O=Cc1ccccc1` the value was -56.9 to -55.6 °C.

The molecule `O=C(O)c1ccc(C(=O)O)s1` had a melting point of 358 to 359 °C.

In turn, `CCCCCCCC(=O)O` registered a melting point of 15.8 to 17 °C.

In turn, `O=[N+]([O-])c1cccc(-c2ccccc2)c1` displayed a melting point of 59 to 62 °C. As to `O=C1c2ccccc2C(=O)c2c(Cl)cccc21`, the melting point fell in the range of 159 to 163 °C. In turn, `CS(=O)(=O)c1ccccc1` registered a melting point of 86 to 87 °C. For `CCc1ccccc1CC`, the melting point was -31.2 to -31 °C.

As for `Cc1ccc2c(c1)C(=O)c1ccccc1C2=O`, the melting point was in the range of 172 to 177 °C. For the molecule `CCS`, the melting point is -148 °C. Molecule `OCCCCCCCCCCO` had a melting point of 72 to 74 °C. As for `CCN(CC)CC`, the melting point is -115 °C.

The molecule `Oc1cc(Cl)ccc1Cl` returned a melting point of 57 to 59 °C. `O=[N+]([O-])c1cc([N+](=O)[O-])c2ccccc2c1O` had a melting point of 131 to 132 °C. `NCCCCCCCN`: the melting point lay within 28 to 28.9 °C. Then `Cc1ccc(Cl)cc1[N+](=O)[O-]`, with 36 to 39 °C. Then `OC1c2ccccc2Oc2ccccc21`, with 123 to 128 °C; and `Cc1cc(N)nc(C)n1`, with 183 to 185 °C. `Cc1ccc(N)cc1N` returned a melting point of 97 to 99 °C.

On to `Nc1cc(Cl)c(Cl)cc1Cl`, for which the melting point was in the range of 94 to 96.5 °C.

Turning to `Cc1nnc(N)s1`, the melting point is 224 to 225 °C. For `CCc1ccc(N)cc1` the value was -5 to -4.8 °C; for `Cc1cc(C2(c3cc(C)c(O)c(Br)c3)OS(=O)(=O)c3ccccc32)cc(Br)c1O`, 241 to 242 °C; for `CCC#CCCCC`, -104 °C.

`O=S1(=O)CC=CC1` had a melting point of 64.5 to 65 °C.

Regarding `CC/C=C/CC`, the melting point was -115 to -113 °C. Take `C=Cc1ccccc1C`: the melting point was -69 to -68.5 °C. As to `O=C(O)c1ccccn1`, the melting point was in the range of 136 to 137 °C. Then `O=[N+]([O-])c1ccc(O)c(F)c1`, with 119 to 121 °C; and `Oc1nc2ccccc2s1`, with 138 to 139 °C. In turn, `NCCCCNCCCN` returned a melting point of 23.5 to 24 °C.

Molecule `CCCCCCCCCCCC(=O)CCCCCCCCCCC` showed a melting point of 67 to 70.2 °C. Regarding `O=C1c2ccccc2C(=O)C1c1ccccc1`, the melting point was determined as 150 °C. Consider `Cc1cc(C)nc(C)c1`, for which the melting point was -46 to -43 °C. Then `COC(=O)c1cc(OC)c(OC)c(OC)c1`, with 83 to 85 °C; and `Cc1cc(Cl)ccc1OC(C)C(=O)O` (stereo unspecified), with 94 to 95 °C. In turn, `Nc1ccccn1` came in with a melting point of 57.5 to 58 °C. Turning to `Cc1cccc(C(C)C)c1`, the melting point is -64 to -63.7 °C. Molecule `O=C1CNC(=O)N1` registered a melting point of 220 to 222 °C. Molecule `Oc1ccc(F)cc1` came in with a melting point of 44.5 to 48 °C. Then `Cc1ccc([N+](=O)[O-])c(C)c1`, with 6 to 9 °C; and `c1ccc(-c2ccc(-c3ccccc3)cc2)cc1`, with 210 to 214 °C. The molecule `O=C(O)c1ccc([N+](=O)[O-])cc1` displayed a melting point of 237 to 242 °C. `C1CCCCCCC1` registered a melting point of 12 to 15 °C. Then `C=CCNCC=C`, with -88.4 to -88 °C.

The molecule `O=C(O)COc1ccc(Cl)cc1Cl` showed a melting point of 138 to 140 °C. As to `CCCCCCCCCCCCCCCC(=O)Cl`, the melting point was 11 to 12 °C. For the molecule `Cc1ccc(O)c(C)c1`, the melting point was 22 to 27 °C. With `C=C(c1ccccc1)c1ccccc1`, the melting point was 6 to 8.2 °C. As for `CC12CCC(C1)C(C)(C)C2=O` (stereo unspecified), the melting point was in the range of 5 to 6.1 °C. Molecule `COC(=O)c1cc(OC)cc(OC)c1` yielded a melting point of 42 to 43 °C. With `O=C/C=C/c1ccccc1`, the melting point was -8 to -7 °C. The molecule `COc1ccc(-c2ccccc2)cc1` gave a melting point of 88 to 91 °C. For `CN1C(=O)C(=O)c2ccccc21` the value was 131 to 132 °C; for `O=P(O)(c1ccccc1)c1ccccc1`, 194 to 195 °C; for `COc1ccc2cc(OC)ccc2c1`, 150 to 153 °C. In turn, `Cc1csc(S)n1` returned a melting point of 88 to 89.3 °C. `O=C=Nc1ccc(Cc2ccc(N=C=O)cc2)cc1` came in with a melting point of 37.2 to 38 °C. For the molecule `OC1(c2ccccc2)CCCCC1`, the melting point was in the range of 60 to 63.5 °C. In turn, `CCN(CC)c1ccc(Br)cc1` gave a melting point of 34 to 38 °C.

Regarding `O=C1C=CC(=O)O1`, the melting point was in the range of 52.8 to 54 °C.
